Reference: patent US20130209431A1, “ISOLATION AND CULTURE OF ERYTHROID PROGENITOR CELLS” (NEW YORK BLOOD CENTER, INC., priority 2012, published 2013)

Experiments:
[1] = system: CD34+CD36−IL-3R+ cells (BFU-E cells); test: Liquid culture of sorted BFU-E cells, cell numbers counted every day; format: cell-based, human
Description: (§1) Cells from day 5 cultures were used for sorting since at this time the cultured cells contain about equal numbers of BFU-E and CFU-E forming progenitors. 50×10^6 cells were suspended in 4 mL PBS/0.5% BSA in a 50 mL tube. Cells were blocked with 4% human AB serum for 10 min and subsequently incubated with PE-conjugated mouse anti-human CD34, FITC-conjugated mouse anti-human CD36 and PE-Cy7-conjugated mouse anti-human IL3-R on ice for 30 min in the dark. Cells were washed twice with 40 mL PBS/0.5% BSA and re-suspended in 5 mL PBS/0.5% BSA and stained with the viability marker 7-AAD on ice for 10 min in the dark. Sorting was performed on a MOFLO high-speed cell sorter (Beckman-Coulter). To sort BFU-E and CFU-E cells from primary human bone marrow, we first obtained mononuclear cells by Ficoll density gradient separation. We then obtained CD45^+ cells by positive selection using CD45 magnetic beads. The CD45^+ cells were stained with PE-conjugated mouse anti-human CD34, FITC-conjugated mouse anti-human CD36, PE-Cy7-conjugated mouse anti-human IL3-R, APC-cy7-conjugated mouse anti-human CD45 and APC-conjugated mouse anti-human CD71 for 30 min in the dark. Cells were washed twice with 40 mL PBS/0.5% BSA, re-suspended in 5 mL PBS/0.5% BSA and stained with the viability marker 7-AAD on ice for 10 min in the dark. Sorting was performed on a MOFLO high-speed cell sorter (Beckman-Coulter).
(§2) 0.1×10^6 of sorted BFU-E and the CFU-E cells were cultured in 1 ml of the first phase culture media (as described before) in the absence or presence of dexamethasone (1 μM) or lenalidomide (10 nM). The cell numbers were counted every day.

[2] = system: CD34−CD36+IL-3R− cells (CFU-E cells); test: Liquid culture of sorted CFU-E cells, cell numbers counted every day; format: cell-based, human
Description: as §1, with “Cells were washed twice with 40 mL PBS/0.5% BSA, re-suspended in 5 mL PBS/0.5% BSA and stained with the viability marker 7-AAD on ice for 10 min in the dark. Sorting was performed on a MOFLO high-speed cell sorter (Beckman-Coulter).” left out
as §2

CFU-E cells = test: Flow cytometry of GPA surface expression on cultured CFU-E cells (self-renewal); format: cell-based, human; conditions: cultured for 6 days in the presence of lenalidomide
Description: Cells taken from culture every day (day 1 to day 7) were analyzed for cell surface expression of CD34, IL-3R, CD36, CD71, CD45 and GPA using FACS canto flow cytometer (Becton Dickinson). Cultured cells (1×10^5) were suspended in PBS supplemented with 0.5% BSA and incubated with 4% human AB serum for 10 min on ice in the dark. The cells were subsequently incubated with fluorochrome-conjugated antibodies for 30 min at 4° C. and then washed once with PBS-0.5% BSA. The washed cells were then incubated for 10 min on ice in the dark with 7-AAD for identification of dead cells. All the reactions were performed under conditions of antibody saturation. Electronic compensation was done using unstained samples.
as §2
Next, the effect of lenalidomide on CFU-E cells was examined. In this population, the expression of GPA was determined since GPA becomes positive as CFU-E cells differentiate into proerythroblasts. […] These findings imply that lenalidomide promotes self-renewal of the CFU-E cells.

human CD34+ cells = conditions: cited from earlier work

Row | Structure (SMILES) | expansion of CD34+CD36−IL-3R+ cells in the presence versus absence of dexamethasone ([1]; dexamethasone 1 μM) [fold] | expansion of CD34+CD36−IL-3R+ cells ([1]; dexamethasone 1 μM, from 0.1×10^6 cells, untreated 70-fold) [fold] | cell number reached by CD34+CD36−IL-3R+ cells ([1]; dexamethasone 1 μM, start 0.1×10^6, untreated 7×10^6) | duration of continued proliferation of CD34+CD36−IL-3R+ cells ([1]; dexamethasone 1 μM, untreated 6 days) [days] | reduction of BFU-E cell doubling time ([1]; in the presence of dexamethasone) [%] | effect on the proliferation of CD34+CD36−IL-3R+ cells ([1]; lenalidomide 10 nM) | response of CD34−CD36+IL-3R− cell proliferation to treatment ([2]; dexamethasone 1 μM or lenalidomide 10 nM) | increase of CD34−CD36+IL-3R− cell numbers every day ([2]; lenalidomide 10 nM, doubled every 24 hours in the absence) | surface expression of GPA on CFU-E cells (CFU-E cells) | effect on BFU-E colony formation (human CD34+ cells) | effect on CFU-E colony formation (human CD34+ cells)
1 | C[C@@H]1C[C@H]2[C@@H]3CCC4=CC(=O)C=C[C@]4(C)[C@@]3(F)[C@@H](O)C[C@]2(C)[C@@]1(O)C(=O)CO [dexamethasone] | ~20 | 1300 | 130×10^6 | 9 | 33 |  |  |  |  |  | 
2 | Nc1cccc2c1CN(C1CCC(=O)NC1=O)C2=O (centres unmarked) [lenalidomide] |  |  |  |  |  | no effect | enhanced the proliferation and expansion | tripled | remains negative | not BFU-E colony | promotes CFU-E colony formation
